Results on 7 compounds are retold here after patent publication US4395401A, “Renally active dipeptides” (SmithKline Beckman Corporation, priority 1981, dated 1983).

For assay [1], the system named is anesthetized dogs. Briefly: Infusion to anesthetized dogs, measuring renal blood flow and renal vascular resistance (procedure of U.S. Pat. No. 4,197,297). It counts as in vivo, dog. An excerpt:
Specific results are included in the examples.

Assay [2] relates to anesthetized dogs. Briefly: Secondary testing (ED15). In kind it is in vivo, dog.
Setting [3] is: infusion 30 μg/kg/min, anesthetized dog.
Where [4] appears, read: infusion 300 μg/kg/min, anesthetized dog.
[5] abbreviates: infusion at 30 and 300 μg/kg/min.
The mark [6] stands for this setting: 300 μg/kg/min, anesthetized dog.

Take `CC(=O)O.COc1ccc(CC(C)(NC(=O)[C@@H]2CCCN2C(=O)CCCc2ccc(O)cc2)C(=O)N[C@@H](CCCNC(=N)N)C(=O)O)cc1OC` (stereo partly drawn) [Example 1, N-4-(4'-hydroxyphenyl)-butyryl-L-prolyl-D,L-α-methyl-3,4-dimethoxyphenylalanyl-L-arginine acetic acid salt]: in the assay on anesthetized dogs [1] (setting [3]), the “decrease of renal vascular resistance” value is on record as -21.3 and the “increase of renal blood flow” value is on record as “+18%”. The ED15 in the assay on anesthetized dogs [2] is 0.506 mg/kg.

In the case of `CC(Cc1ccc(O)cc1)(NC(=O)[C@@H]1CCCN1C(=O)CCCc1ccc(O)cc1)C(=O)NCCCN.Cl` (stereo partly drawn) [Example 4, N-4-(4'-hydroxyphenylbutyryl)-L-prolyl-D,L-α-methyltyrosine ω-aminopropylamide, hydrochloride], in the assay with anesthetized dogs [1] (3 μg/kg/min, anesthetized dog), the “decrease of renal vascular resistance” value is recorded as -9.5 and the “increase of renal blood flow” value was “+8.5”.

In the case of `CC(Cc1ccccc1)(NC(=O)[C@@H]1CCCN1C(=O)CCCc1ccc(O)cc1)C(=O)NCCCN.Cl` (stereo partly drawn) [Example 5, N-4-(4'-hydroxyphenylbutyryl)-L-prolyl-D,L-α-methylphenylalanine ω-aminopropylamide, hydrochloride], the cumulative drug effect entry with anesthetized dogs [1] (infused in anesthetized dogs) is given as “demonstrated a cumulative drug effect”. In addition, in the assay on anesthetized dogs [1] (setting [4]), the “increase of renal blood flow” value is “+11.7%”. Also, the “decrease of vascular renal resistance” value in the assay on anesthetized dogs [1] (infusion 300 μg/kg/min, anesthetized dogs) was 11.3%.

In the case of `COc1ccc(CC(C)(NC(=O)[C@@H]2CCCN2C(=O)CCCc2ccc(O)cc2)C(=O)NCCCN)cc1OC.Cl` (stereo partly drawn) [Example 2, N-4-(4'-hydroxyphenyl)-butyryl-L-prolyl-D,L-α-methyl-3,4-dimethoxyphenylalanine 3-aminopropylamide hydrochloride], in the assay with anesthetized dogs [1] (infusion 3 μg/kg/min), the “decrease of renal vascular resistance” value is given as -11% and the “increase of renal blood flow” value was “+13.5%”. For the same compound, in the assay on anesthetized dogs [1] (setting [5]), the “renal blood flow (in words)” value is “increased renal blood” and the “renal vascular resistance (in words)” value was “decreased renal vascular resistance”.

Turning to `CC(=O)O.CC(Cc1ccc(O)cc1)(NC(=O)[C@@H]1CCCN1C(=O)CCCc1ccc(O)cc1)C(=O)N[C@@H](CCCNC(=N)N)C(=O)O` (stereo partly drawn) [Example 3, N-4-(4'-hydroxyphenyl)-butyryl-L-prolyl-D,L-α-methyltyrosyl-L-arginine acetic acid salt], the “decrease of renal vascular resistance” value in the assay with anesthetized dogs [1] (3 μg/kg/min, anesthetized dog) is given as -12; in the assay with anesthetized dogs [1] (setting [6]), -11; with anesthetized dogs [1] (setting [3]), -9. Besides, the “increase of renal blood flow” value in the assay with anesthetized dogs [1] (3 μg/kg/min, anesthetized dog) is “+8.0”; in the assay on anesthetized dogs [1] (30 μg/kg/min, anesthetized dog), “+12.0”; with anesthetized dogs [1] (setting [6]), “+11.0”. Further, the “increase of renal blood flow after a cumulative dose” value in the assay on anesthetized dogs [1] (cumulative dose at 3, 30 and 300 μg/kg/min) is listed as 28%.

For the compound `NCCc1ccc(O)c(O)c1` [Dopamine, reference compound], in the assay on anesthetized dogs [2], the ED15 was determined as 0.0035 mg/kg.

Take `CC(=O)O.C[C@@](Cc1ccccc1)(NC(=O)[C@@H]1CCCN1C(=O)CCCc1ccc(O)cc1)C(=O)N[C@@H](CCCNC(=N)N)C(=O)O.O` [Example 6, N-4-(4'-hydroxyphenyl)-butyryl-L-prolyl-D,L-α-methylphenylalanyl-L-arginine 1.5HOAc.1H2 O]: the entries for the “increase of renal blood flow” value in the assay on anesthetized dogs [1] (setting [3]) and in the assay with anesthetized dogs [1] (setting [4]) were “+12%” and “+11%”, respectively.
